# Patent US20220030867A1 (priority 2018, published 2022)
# Assays:
# [1] = tested on: Magnaporthe grisea (Pyricularia oryzae); test: microbe, parasite or virus in culture; assay type: cell-based; settings: read-out: control of Magnaporthe grisea
# Fusarium culmorum = test: whole plant or invertebrate; assay type: in vivo, Fusarium culmorum on wheat spikelets cv. Monsun; settings: in Triticum aestivum, read-out: control of Fusarium culmorum
# [2] = tested on: Magnaporthe grisea (Pyricularia oryzae); test: whole plant or invertebrate; assay type: in vivo, Magnaporthe grisea on rice leaf segments cv. Ballila; settings: foliar, read-out: control of Magnaporthe grisea
SMILES,inhibition of growth at 200 ppm [1],pest or weed control at 200 ppm (Fusarium culmorum),pest or weed control at 200 ppm [2],melting point
"C#CCC(C)(Cc1ccccc1)C(=O)Nc1cnc2c(F)cccc2c1C (stereo not shown) [Compound E-3, 2-benzyl-N-(8-fluoro-4-methyl-3-quinolyl)-2-methyl-pent-4-ynamide]",≥ 80%,–,–,–
"Cc1nc2c(F)cccc2cc1NC(=O)C(C)(Cc1cccc(F)c1)CC(F)(F)F (stereo not shown) [Compound E-8, 4,4,4-trifluoro-N-(8-fluoro-2-methyl-3-quinolyl)-2-[(3-fluorophenyl)methyl]-2-methyl-butanamide]",–,≥ 80%,≥ 80%,–
"Cc1nc2c(Cl)cccc2cc1NC(=O)C(C)(Cc1ccccc1)CC(C)C (stereo not shown) [Compound E-13, 2-benzyl-N-(8-chloro-2-methyl-3-quinolyl)-2,4-dimethyl-pentanamide]",–,–,≥ 80%,99 to 100 °C
"Cc1nc2c(Cl)cccc2cc1NC(=O)C(C)(Cc1ccccc1)CC(F)(F)F (stereo not shown) [Compound E-17, 2-benzyl-N-(8-chloro-2-methyl-3-quinolyl)-4,4,4-trifluoro-2-methyl-butanamide]",–,–,≥ 80%,47 to 50 °C
"CC(Cc1ccc(F)cc1)(CC(F)(F)F)C(=O)Nc1cnc2c(F)cccc2c1 (stereo not shown) [Compound E-18, 4,4,4-trifluoro-2-[(4-fluorophenyl)methyl]-N-(8-fluoro-3-quinolyl)-2-methyl-butanamide]",–,–,≥ 80%,–
"Cc1c(NC(=O)C(Cc2ccccc2)CC(C)C)cnc2c(F)cccc12 (stereo not shown) [Compound E-19, 2-benzyl-N-(8-fluoro-4-methyl-3-quinolyl)-4-methyl-pentanamide]",–,≥ 80%,≥ 80%,–
"C=C(Cl)CC(C)(Cc1ccccc1)C(=O)Nc1cnc2c(F)cccc2c1C (stereo not shown) [Compound E-20, 2-benzyl-4-chloro-N-(8-fluoro-4-methyl-3-quinolyl)-2-methyl-pent-4-enamide]",–,≥ 80%,≥ 80%,124 to 126 °C
"C=C(Cl)CC(C)(Cc1ccccc1)C(=O)Nc1cc2cccc(F)c2nc1C (stereo not shown) [Compound E-21, 2-benzyl-4-chloro-N-(8-fluoro-2-methyl-3-quinolyl)-2-methyl-pent-4-enamide]",–,≥ 80%,≥ 80%,121 to 123 °C
"C#CCC(C)(Cc1ccccc1)C(=O)Nc1cnc2c(F)cccc2c1 (stereo not shown) [Compound E-26, 2-benzyl-N-(8-fluoro-3-quinolyl)-2-methyl-pent-4-ynamide]",–,–,≥ 80%,189 to 191 °C
"CCCCC(C)(Cc1ccccc1)C(=O)Nc1cnc2c(F)cccc2c1 (stereo not shown) [Compound E-27, 2-benzyl-N-(8-fluoro-3-quinolyl)-2-methyl-hexanamide]",–,–,≥ 80%,135 to 137 °C
"CC#CCC(Cc1ccccc1)C(=O)Nc1cnc2c(F)cccc2c1 (stereo not shown) [Compound E-29, 2-benzyl-N-(8-fluoro-3-quinolyl)hex-4-ynamide]",–,–,≥ 80%,218 to 220 °C
"CC#CCC(C)(Cc1ccccc1)C(=O)Nc1cnc2c(F)cccc2c1 (stereo not shown) [Compound E-30, 2-benzyl-N-(8-fluoro-3-quinolyl)-2-methyl-hex-4-ynamide]",–,–,≥ 80%,136 to 138 °C
"Cc1nc2c(F)cccc2cc1NC(=O)C(Cc1ccccc1)CC(F)(F)F (stereo not shown) [Compound E-44, 2-benzyl-4,4,4-trifluoro-N-(8-fluoro-2-methyl-3-quinolyl)-butanamide]",–,≥ 80%,≥ 80%,–
"Cc1c(NC(=O)C(Cc2ccccc2)CC(F)(F)F)cnc2c(F)cccc12 (stereo not shown) [Compound E-45, 2-benzyl-4,4,4-trifluoro-N-(8-fluoro-4-methyl-3-quinolyl)-butanamide]",–,≥ 80%,≥ 80%,165 to 167 °C
"C=C(C)CC(CC)(Cc1ccccc1)C(=O)Nc1cnc2c(F)cccc2c1 (stereo not shown) [Compound E-46, 2-benzyl-2-ethyl-N-(8-fluoro-3-quinolyl)-4-methyl-pent-4-enamide]",–,–,≥ 80%,–
"Cc1c(NC(=O)C(C)(Cc2ccccc2)CC(F)(F)F)cnc2c(F)cccc12 (stereo not shown) [Compound E-50, 2-benzyl-4,4,4-trifluoro-N-(8-fluoro-4-methyl-3-quinolyl)-2-methyl-butanamide]",–,≥ 80%,≥ 80%,106 to 109 °C
"Cc1cccc2cc(NC(=O)C(C)(Cc3ccccc3)CC(F)(F)F)cnc12 (stereo not shown) [Compound E-59, 2-benzyl-4,4,4-trifluoro-2-methyl-N-(8-methyl-3-quinolyl)-butanamide]",–,≥ 80%,–,123 to 125 °C
"CC(Cc1ccccc1)(CC(F)(F)F)C(=O)Nc1cnc2c(F)c(F)ccc2c1 (stereo not shown) [Compound E-60, 2-benzyl-N-(7,8-difluoro-3-quinolyl)-4,4,4-trifluoro-2-methyl-butanamide]",–,≥ 80%,–,183 to 186 °C
"C=C(C)CC(C)(Cc1ccccc1)C(=O)Nc1cnc2c(Br)cccc2c1 (stereo not shown) [Compound E-63, 2-benzyl-N-(8-bromo-3-quinolyl)-2,4-dimethyl-pent-4-enamide]",–,≥ 80%,–,165 to 169 °C

SMILES,inhibition of growth at 200 ppm [1],pest or weed control at 200 ppm (Fusarium culmorum),pest or weed control at 200 ppm [2],melting point
"CC(F)(F)CC(C)(Cc1ccccc1)C(=O)Nc1cnc2c(F)cccc2c1 (stereo not shown) [Compound E-68, 2-benzyl-4,4-difluoro-N-(8-fluoro-3-quinolyl)-2-methyl-pentanamide]",–,≥ 80%,–,156 to 158 °C
"C=C(F)CC(C)(Cc1ccccc1)C(=O)Nc1cnc2c(F)cccc2c1 (stereo not shown) [Compound E-71, 2-benzyl-4-fluoro-N-(8-fluoro-3-quinolyl)-2-methyl-pent-4-enamide]",–,≥ 80%,–,132 to 134 °C
"C=C(C)CC(C)(Cc1ccccc1)C(=O)Nc1cnc2c(F)cccc2c1 (stereo not shown) [Compound E-74, 2-benzyl-N-(8-fluoro-3-quinolyl)-2,4-dimethyl-pent-4-enamide]",–,≥ 80%,–,147 to 149 °C
"CC(Cc1ccccc1)(CC1CC1)C(=O)Nc1cnc2c(F)cccc2c1 (stereo not shown) [Compound E-76, 2-benzyl-3-cyclopropyl-N-(8-fluoro-3-quinolyl)-2-methyl-propanamide]",–,–,≥ 80%,157 to 159 °C
"CC(Cc1ccccc1)(CC(F)(F)F)C(=O)Nc1cnc2c(F)cccc2c1 (stereo not shown) [Compound E-80, 2-benzyl-4,4,4-trifluoro-N-(8-fluoro-3-quinolyl)-2-methyl-butanamide]",–,≥ 80%,≥ 80%,–
"O=C(Nc1cnc2c(F)cccc2c1)C(Cc1ccccc1)CC(F)(F)F (stereo not shown) [Compound E-82, 2-benzyl-4,4,4-trifluoro-N-(8-fluoro-3-quinolyl)butanamide]",–,≥ 80%,–,161 to 164 °C
"CC(C)CC(C)(Cc1ccccc1)C(=O)Nc1cnc2ccccc2c1 (stereo not shown) [Compound E-85, 2-benzyl-2,4-dimethyl-N-(3-quinolyl)pentanamide]",≥ 80%,–,–,147 to 148 °C
"CC(C)CC(C)(Cc1ccccc1)C(=O)Nc1cnc2c(F)cccc2c1 (stereo not shown) [Compound E-87, 2-benzyl-N-(8-fluoro-3-quinolyl)-2,4-dimethyl-pentanamide]",–,≥ 80%,–,140 to 142 °C
"CC(C)(C)C(Cc1ccccc1)C(=O)Nc1cnc2c(F)cccc2c1 (stereo not shown) [Compound E-88, 2-benzyl-N-(8-fluoro-3-quinolyl)-3,3-dimethyl-butanamide]",–,≥ 80%,–,212 to 215 °C
C#CCC(Cc1ccccc1)C(=O)Nc1cnc2c(F)cccc2c1C (stereo not shown) [Compound E-95],≥ 80%,–,–,–
"C=C(C)C[C@@](C)(Cc1ccccc1)C(=O)Nc1cc2cccc(F)c2nc1C [Compound F-1, (2S)-2-benzyl-N-(8-fluoro-2-methyl-3-quinolyl)-2,4-dimethyl-pent-4-enamide]",–,≥ 80%,≥ 80%,–
"C=C(C)C[C@](C)(Cc1ccccc1)C(=O)Nc1cc2cccc(F)c2nc1C [Compound F-2, (2R)-2-benzyl-N-(8-fluoro-2-methyl-3-quinolyl)-2,4-dimethyl-pent-4-enamide]",–,≥ 80%,≥ 80%,–
"C=C(C)C[C@](C)(Cc1ccccc1)C(=O)Nc1cnc2c(F)cccc2c1C [Compound F-6, (2R)-2-benzyl-N-(8-fluoro-4-methyl-3-quinolyl)-2,4-dimethyl-pent-4-enamide]",–,≥ 80%,≥ 80%,–
"CC1(C[C@](C)(Cc2ccccc2)C(=O)Nc2cnc3c(F)cccc3c2)CC1 [Compound F-9, (2R)-2-benzyl-N-(8-fluoro-3-quinolyl)-2-methyl-3-(1-methylcyclopropyl)propanamide]",–,≥ 80%,≥ 80%,–
"Cc1nc2c(F)cccc2cc1NC(=O)[C@](C)(Cc1ccccc1)CC(F)(F)F [Compound F-11, (2R)-2-benzyl-4,4,4-trifluoro-N-(8-fluoro-2-methyl-3-quinolyl)-2-methyl-butanamide]",–,≥ 80%,≥ 80%,–
"Cc1nc2c(F)cccc2cc1NC(=O)[C@@](C)(Cc1ccccc1)CC(F)(F)F [Compound F-12, (2S)-2-benzyl-4,4,4-trifluoro-N-(8-fluoro-2-methyl-3-quinolyl)-2-methyl-butanamide]",–,≥ 80%,≥ 80%,–
"CC(C)C[C@](C)(Cc1ccccc1)C(=O)Nc1cnc2c(F)cccc2c1 [Compound F-19, (2R)-2-benzyl-N-(8-fluoro-3-quinolyl)-2,4-dimethyl-pentanamide]",≥ 80%,≥ 80%,–,–
"C=C(C)C[C@](C)(Cc1ccccc1)C(=O)Nc1cnc2c(F)cccc2c1 [Compound F-22, (2R)-2-benzyl-N-(8-fluoro-3-quinolyl)-2,4-dimethyl-pent-4-enamide]",≥ 80%,–,–,–
